In US20160058712A1, “3-HYDROXYPTEROSTILBENE AND THERAPEUTIC APPLICATIONS THEREOF” (priority 2014, published 2016):

Key:
[1] = test system: caspase 3 activity in COLO 205 cells; assay: Fluorogenic caspase induction assay; format: cell-based, human; conditions: COLO 205, after 24 hours of treatment
Experimental: The caspase 3, 8 and 9 induction activity in protein extractions of COLO 205 cells was determined by a fluorogenic assay (Promega's CaspACE Assay System, Madison, Wis.). Briefly, 50 μg of total protein, as determined by the BioRad protein assay kit (BioRad Laboratories), was incubated with 50 μM substrate Ac-Asp-Glu-Val-Asp-methylcoumaryl-7-amine (caspase3 specific substrate), Ac-Ile-Glu-Thr-Asp-AMC ([…]) (caspase 8 specific substrate), or Ac-Leu-Glu-His-Asp-AMC (Ac-LEHD-AMC) (caspase 9 specific substrate) at 30° C. for 1 h. The release of methylcoumaryl-7-amine was measured by excitation at 360 nm and emission at 460 nm using a fluorescence spectrophotometer (ECLIPSE, Varian, Palo Alto, Calif.).

[2] = test system: PC-3 cell lines; assay: Microscopic morphological changes of PC-3 cells; format: cell-based, human; conditions: PC-3, 2.5-20 μM, 100× phase contrast
Experimental: The morphological changes evident in PC-3 cell lines treated with graded concentrations of 3-HPT (2.5 μM, 5 μM, 10 μM and 20 μM of 3-HPT) as viewed microscopically (100× under inverted stage microscope equipped with phase contrast) indicated cell cytotoxicity starting at a concentration of 5 μM 3-HPT (FIG. 2).

## COc1cc(/C=C/c2ccc(O)c(O)c2)cc(OC)c1 [3-hydroxypterostilbene, 3,4-dihydroxy-3′,5′-dimethoxy-trans-stilbene]
[1]
  increase in caspase 3 activity: approximately 2.4 fold
[2]
  concentration at which cell cytotoxicity starts (morphological changes): 5 μM
